Measured values from patent US8975398B2, “NAMPT inhibitors” (AbbVie Inc., priority 2012, dated 2015).

Tests used:
[1] = target: NAMPT (human, recombinant, C-terminally His-tagged) (Homo sapiens, UniProt P43490); assay: Time-Resolved Fluorescence Resonance Energy Transfer (TR-FRET) Binding Assay of NAMPT; settings: 6.8 nM NAMPT, 200 nM probe, equilibrated 3 hours, absence of substrates
Description: Determination of the utility of compounds having Formula (I) as binders to and inhibitors of NAMPT was performed using Time-Resolved Fluorescence Resonance Energy Transfer (TR-FRET) binding assays.
Time-Resolved Fluorescence Resonance Energy Transfer (TR-FRET) Binding Assay of NAMPT
Test compounds were serially diluted (typically 11 half log dilutions) in neat DMSO to 50× final concentrations prior to dilution with assay buffer (50 mM HEPES (NaOH), pH 7.5, 100 mM NaCl, 10 mM MgCl2, 1 mM DTT, 1% Glycerol) to 3× and 6% DMSO. Six μL were transferred to 384-well low-volume plates (Owens Corning #3673). To this, 12 μL of a 1.5× solution containing enzyme, probe and antibody were added. Final concentrations in the 18 μL, reactions were 1× assay buffer, 2% DMSO, 6.8 nM NAMPT (human, recombinant, C-terminally His-tagged), 200 nM probe (a potent nicotinamide-competitive inhibitor conjugated to Oregon Green 488) and 1 nM Tb-anti-His antibody (Invitrogen #PV5895). Reactions were equilibrated at room temperature for 3 hours prior to reading on an Envision multi-label plate reader (Perkin Elmer; Ex=337 nm, Em=520 and 495 nm). Time-resolved FRET ratios (Em520/Em495) were normalized to controls, plotted as a function of compound concentration and fit with the four-parameter logistic equation to determine IC50s.

NAMPT = NAMPT (Homo sapiens, UniProt P43490); assay: Time-Resolved Fluorescence Resonance Energy Transfer (TR-FRET) Binding Assay of NAMPT with PRPP; settings: 2 nM NAMPT, 2 nM probe, 200 uM PRPP and 2.5 mM ATP, equilibrated 16 hours
Chain of NAMPT (P43490 whole entry): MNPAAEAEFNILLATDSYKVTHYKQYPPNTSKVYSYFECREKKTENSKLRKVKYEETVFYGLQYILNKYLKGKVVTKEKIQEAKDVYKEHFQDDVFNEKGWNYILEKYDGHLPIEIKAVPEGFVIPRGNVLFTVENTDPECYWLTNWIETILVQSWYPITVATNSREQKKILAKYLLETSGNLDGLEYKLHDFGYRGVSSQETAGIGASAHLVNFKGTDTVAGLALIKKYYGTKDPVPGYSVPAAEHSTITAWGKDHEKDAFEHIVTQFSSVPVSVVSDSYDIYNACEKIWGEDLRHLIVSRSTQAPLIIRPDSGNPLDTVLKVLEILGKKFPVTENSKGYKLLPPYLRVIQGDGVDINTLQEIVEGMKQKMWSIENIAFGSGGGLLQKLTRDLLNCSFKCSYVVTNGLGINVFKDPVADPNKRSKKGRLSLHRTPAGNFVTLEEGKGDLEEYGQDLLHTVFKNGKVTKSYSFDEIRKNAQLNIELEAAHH
Description: Time-Resolved Fluorescence Resonance Energy Transfer (TR-FRET) Binding Assay of NAMPT with PRPP
Compound handling and data processing were identical to the assay in the absence of substrates (above). Final concentrations were 1× assay buffer, 2% DMSO, 2 nM NAMPT, 2 nM probe, 1 nM Tb-anti-His antibody (Invitrogen #PV5895), 200 uM PRPP and 2.5 mM ATP. Reactions were equilibrated for 16 hours prior to measurement to allow for potential enzymatic modification of test compounds.

Chain of NAMPT (human, recombinant, C-terminally His-tagged) (P43490 whole entry): as above

IC50 [1] | IC50 (NAMPT) | SMILES
91.1 nM | 38.4 nM | O=C(Nc1ccc(OC2CN(C(=O)CC3CCOCC3)C2)cc1)C1CN(c2ccnnc2)C1 [Example 256, 1-(pyridazin-4-yl)-N-(4-{[1-(tetrahydro-2H-pyran-4-ylacetyl)azetidin-3-yl]oxy}phenyl)azetidine-3-carboxamide]
109 nM | 0.883 nM | CCOCCC(=O)N1CCC(c2ccc(NC(=O)C3CN(c4cccnn4)C3)cc2)CC1 [Example 380, N-{4-[1-(3-ethoxypropanoyl)piperidin-4-yl]phenyl}-1-(pyridazin-3-yl)azetidine-3-carboxamide]
130 nM | 1.11 nM | O=C(Nc1ccc(OC2CCN(C(=O)Cc3ccc(F)cc3F)CC2)cc1)C1CN(c2cccnn2)C1 [Example 236, N-[4-({1-[(2,4-difluorophenyl)acetyl]piperidin-4-yl}oxy)phenyl]-1-(pyridazin-3-yl)azetidine-3-carboxamide]
12.6 nM | 0.655 nM | CC(C)(C)CC(=O)N1CCC(c2ccc(NC(=O)C3CN(c4cccnn4)C3)cc2)CC1 [Example 327, N-{4-[1-(3,3-dimethylbutanoyl)piperidin-4-yl]phenyl}-1-(pyridazin-3-yl)azetidine-3-carboxamide]
98.9 nM | 118 nM | Cc1ccc(C(=O)N2CCC(c3ccc(NC(=O)C4CN(c5cccnc5C)C4)cc3)CC2)s1 [Example 186, 1-(2-methylpyridin-3-yl)-N-(4-{1-[(5-methylthiophen-2-yl)carbonyl]piperidin-4-yl}phenyl)azetidine-3-carboxamide]
103 nM | 0.859 nM | CC(=O)N1CCC(C(=O)N2CCC(c3ccc(NC(=O)C4CN(c5cccnn5)C4)cc3)CC2)CC1 [Example 383, N-(4-{1-[(1-acetylpiperidin-4-yl)carbonyl]piperidin-4-yl}phenyl)-1-(pyridazin-3-yl)azetidine-3-carboxamide]
2000 nM | 0.647 nM | CCC(C)(C)CN1CCC(c2ccc(NC(=O)C3CN(c4cccnc4)C3)cc2)CC1 [Example 89, N-{4-[1-(2,2-dimethylbutyl)piperidin-4-yl]phenyl}-1-(pyridin-3-yl)azetidine-3-carboxamide]
6.12 nM | 0.169 nM | O=C(Nc1ccc(C2CCN(C(=O)CC3CCCCC3)CC2)cc1)C1CN(c2cccnc2)C1 [Example 119, N-{4-[1-(cyclohexylacetyl)piperidin-4-yl]phenyl}-1-(pyridin-3-yl)azetidine-3-carboxamide]
50.9 nM | 0.631 nM | COCC(=O)N1CCC(c2ccc(NC(=O)C3CN(c4cccnn4)C3)cc2)CC1 [Example 333, N-{4-[1-(methoxyacetyl)piperidin-4-yl]phenyl}-1-(pyridazin-3-yl)azetidine-3-carboxamide]
6070 nM | 1.81 nM | CCC(C)(C)CN1CCC(Oc2ccc(NC(=O)C3CN(c4cccnc4)C3)cc2)CC1 [Example 84, N-(4-{[1-(2,2-dimethylbutyl)piperidin-4-yl]oxy}phenyl)-1-(pyridin-3-yl)azetidine-3-carboxamide]
88.2 nM | 0.472 nM | N#Cc1ccc(C(=O)N2CCC(c3ccc(NC(=O)C4CN(c5cccnn5)C4)cc3)CC2)cc1 [Example 353, N-{4-[1-(4-cyanobenzoyl)piperidin-4-yl]phenyl}-1-(pyridazin-3-yl)azetidine-3-carboxamide]
192 nM | 61.1 nM | O=C(Nc1ccc(OC2CCN(C(=O)C3CCOC3)CC2)cc1)C1CN(c2ccnnc2)C1 (centres unmarked) [Example 298, 1-(pyridazin-4-yl)-N-(4-{[1-(tetrahydrofuran-3-ylcarbonyl)piperidin-4-yl]oxy}phenyl)azetidine-3-carboxamide]
1340 nM | 0.719 nM | CCCC(C)CN1CCC(Oc2ccc(NC(=O)C3CN(c4cccnc4)C3)cc2)CC1 (centres unmarked) [Example 75, N-(4-{[1-(2-methylpentyl)piperidin-4-yl]oxy}phenyl)-1-(pyridin-3-yl)azetidine-3-carboxamide]
25.6 nM | 0.689 nM | CC1(C(=O)N2CCC(Oc3ccc(NC(=O)C4CN(c5cccnc5)C4)cc3)CC2)CCCCC1 [Example 53, N-[4-({1-[(1-methylcyclohexyl)carbonyl]piperidin-4-yl}oxy)phenyl]-1-(pyridin-3-yl)azetidine-3-carboxamide]
62.4 nM | 38.2 nM | O=C(Nc1ccc(OC2CCN(C(=O)c3ccc(F)cc3F)CC2)cc1)C1CN(c2ccnnc2)C1 [Example 284, N-(4-{[1-(2,4-difluorobenzoyl)piperidin-4-yl]oxy}phenyl)-1-(pyridazin-4-yl)azetidine-3-carboxamide]
296 nM | 0.244 nM | O=C(Nc1ccc(C2CCN(C(=O)CN3CCCC3)CC2)cc1)C1CN(c2cccnc2)C1 [Example 105, 1-(pyridin-3-yl)-N-{4-[1-(pyrrolidin-1-ylacetyl)piperidin-4-yl]phenyl}azetidine-3-carboxamide]
33.9 nM | 11.2 nM | CC(C)(C)CC(=O)N1CC(Oc2ccc(NC(=O)C3CN(c4ccnnc4)C3)cc2)C1 [Example 254, N-(4-{[1-(3,3-dimethylbutanoyl)azetidin-3-yl]oxy}phenyl)-1-(pyridazin-4-yl)azetidine-3-carboxamide]
15.3 nM | 0.628 nM | O=C(Nc1ccc(C2CCN(C(=O)c3cccc(F)c3)CC2)cc1)C1CN(c2cccnn2)C1 [Example 348, N-{4-[1-(3-fluorobenzoyl)piperidin-4-yl]phenyl}-1-(pyridazin-3-yl)azetidine-3-carboxamide]
2480 nM | 4.13 nM | O=C(Nc1ccc(OC2CCN(C(=O)CC3CC3)CC2)cc1)[C@H]1CCN(c2cccnc2)C1 [Example 16, (3S)-N-(4-{[1-(cyclopropylacetyl)piperidin-4-yl]oxy}phenyl)-1-(pyridin-3-yl)pyrrolidine-3-carboxamide]
9.54 nM | 0.392 nM | COc1ccccc1C(=O)N1CCC(c2ccc(NC(=O)C3CN(c4cccnn4)C3)cc2)CC1 [Example 345, N-{4-[1-(2-methoxybenzoyl)piperidin-4-yl]phenyl}-1-(pyridazin-3-yl)azetidine-3-carboxamide]
207 nM | 0.554 nM | O=C(Nc1ccc(OC2CCN(C(=O)Cc3ccc(OC(F)(F)F)cc3)CC2)cc1)C1CN(c2cccnn2)C1 [Example 238, 1-(pyridazin-3-yl)-N-{4-[(1-{[4-(trifluoromethoxy)phenyl]acetyl}piperidin-4-yl)oxy]phenyl}azetidine-3-carboxamide]
43.9 nM | 1.51 nM | CC(C)(C(=O)N1CCC(Oc2ccc(NC(=O)C3CN(c4cccnn4)C3)cc2)CC1)c1ccccc1 [Example 217, N-(4-{[1-(2-methyl-2-phenylpropanoyl)piperidin-4-yl]oxy}phenyl)-1-(pyridazin-3-yl)azetidine-3-carboxamide]
12 nM | 0.473 nM | CC(C)C(C)C(=O)N1CCC(c2ccc(NC(=O)C3CN(c4cccnc4)C3)cc2)CC1 (centres unmarked) [Example 139, N-{4-[1-(2,3-dimethylbutanoyl)piperidin-4-yl]phenyl}-1-(pyridin-3-yl)azetidine-3-carboxamide]
14.6 nM | 34.4 nM | O=C(Nc1ccc(C2CCN(C(=O)CC3CCCC3)CC2)cc1)C1CN(c2ccnnc2)C1 [Example 144, N-{4-[1-(cyclopentylacetyl)piperidin-4-yl]phenyl}-1-(pyridazin-4-yl)azetidine-3-carboxamide]
31.7 nM | 0.887 nM | C=CCC(=O)N1CCC(c2ccc(NC(=O)C3CN(c4cccnn4)C3)cc2)CC1 [Example 330, N-{4-[1-(but-3-enoyl)piperidin-4-yl]phenyl}-1-(pyridazin-3-yl)azetidine-3-carboxamide]
1210 nM | 0.503 nM | O=C(Nc1ccc(OC2CCN(CC3CCOC3)CC2)cc1)C1CN(c2cccnc2)C1 (centres unmarked) [Example 83, 1-(pyridin-3-yl)-N-(4-{[1-(tetrahydrofuran-3-ylmethyl)piperidin-4-yl]oxy}phenyl)azetidine-3-carboxamide]
87.6 nM | 101 nM | Cc1ncccc1N1CC(C(=O)Nc2ccc(C3CCN(C(=O)c4cccc(F)c4)CC3)cc2)C1 [Example 152, N-{4-[1-(3-fluorobenzoyl)piperidin-4-yl]phenyl}-1-(2-methylpyridin-3-yl)azetidine-3-carboxamide]
230 nM | 0.88 nM | O=C(Nc1ccc(OC2CCN(C(=O)C3CC3)CC2)cc1)C1CN(c2cccnn2)C1 [Example 251, N-(4-{[1-(cyclopropylcarbonyl)piperidin-4-yl]oxy}phenyl)-1-(pyridazin-3-yl)azetidine-3-carboxamide]
